From patent US11844795B2, “Combination therapy for cancer treatment” (Ipsen Biopharm Ltd., priority 2015, dated 2023)
Read-outs that look alike come from different tables or passages of the source.

Legend:
PARP-DNA complexes = conditions: compared with veliparib; cited from earlier work
HCC1806 = test: Cell survival (CellTiter-Glo) after SN-38 and/or PARP inhibitor; format: cell-based; conditions: Exp. 1, single agent
Description: (§1) Cells were plated at 1000 cells/well and then incubated for 24 hours. […] The plates were then allowed to incubate for 72 hours period. After the 72 hour incubation period the media was removed and cell viability was determined using the CellTiter-Glo® cell viability assay (Promega, Madison Wis.) according to the product instructions.

SUM159PT = test: as above; format: cell-based; conditions: for IC50: Homo sapiens, SUM-159-PT
Description: as §1

HCC1187 = test: as above; format: cell-based; conditions: for IC50: Homo sapiens
Description: as §1

BT549 = test: as above; format: cell-based; conditions: for IC50: Homo sapiens
Description: as §1

BT20 = test: as above; format: cell-based; conditions: for IC50: Homo sapiens
Description: as §1

HCC38 = test: as above; format: cell-based; conditions: HCC38, single agent; for IC50: Homo sapiens, read-out: IC50 log10 (converted)
Description: as §1

[1] = test system: CFPAC-1 pancreatic cancer cells; test: % cell number over time, SN-38 with PARP inhibitors; format: cell-based; conditions: SN-38 at 2 nM
PAR = conditions: Table 2B, unit inferred; cited from earlier work
[2] = test system: DMS-114 small cell lung cancer cells; test: % cell number over time, SN-38 with PARP inhibitors; format: cell-based; conditions: SN-38 at 2 nM; DMS-114 SCLC cells
[3] = test system: small cell lung cancer (SCLC), pancreatic cancer and breast cancer cell lines; test: Growth inhibition, SN-38 with PARP inhibitors; format: cell-based; conditions: 2 nM SN-38
SUM149PT = test: Cell survival (CellTiter-Glo) after SN-38 and/or PARP inhibitor; format: cell-based; conditions: for IC50: Homo sapiens
Description: as §1

HCC1954 = test: as above; format: cell-based; conditions: HCC1954, single agent
Description: as §1

[4] = test system: NCI-H1048 small cell lung cancer cells; test: % cell number over time, SN-38 with PARP inhibitors; format: cell-based; conditions: SN-38 at 2 nM; NCI-H1048 SCLC cells
cancer cells = test: Active range based on XTC008
[5] = test system: HT-29 colorectal cancer (CRC) tumor xenograft; test: Tumor SN-38 and tumor response in HT-29 xenograft-bearing mice; format: in vivo
Description: The duration of tumor exposure to the topoisomerase 1 inhibitor SN-38 above a threshold minimum concentration (e.g., 120 nM) correlated with antitumor activity of the liposomal irinotecan. […] For example, FIG. 13B depicts tumor content of SN-38 in multiple murine cervical cancer models. […] Levels of SN-38 of 120 nM were identified as the SN-38 tumor concentration required to yield tumor response.

[6] = test system: C33A cervical cancer xenograft; test: C33A cervical cancer xenograft model; conditions: liver, spleen, colon, plasma versus tumors
HT-29 = test: In vitro SN-38 effect on cell line (GI50); format: cell-based; conditions: HT-29, in vitro
SKBR3 = test: Cell survival (CellTiter-Glo) after SN-38 and/or PARP inhibitor; format: cell-based; conditions: Exp. 4, single agent
Description: as §1

HCC70 = test: as above; format: cell-based; conditions: Exp. 2, single agent
Description: as §1

human plasma proteins = conditions: cited from earlier work
tankyrase-1 = tankyrase-1 (Homo sapiens, UniProt O95271); conditions: cell-free assays; cited from earlier work
[7] = read-out: IC50 log10 (μM) (converted)

tankyrase-1, sequence (O95271 whole entry, species assumed): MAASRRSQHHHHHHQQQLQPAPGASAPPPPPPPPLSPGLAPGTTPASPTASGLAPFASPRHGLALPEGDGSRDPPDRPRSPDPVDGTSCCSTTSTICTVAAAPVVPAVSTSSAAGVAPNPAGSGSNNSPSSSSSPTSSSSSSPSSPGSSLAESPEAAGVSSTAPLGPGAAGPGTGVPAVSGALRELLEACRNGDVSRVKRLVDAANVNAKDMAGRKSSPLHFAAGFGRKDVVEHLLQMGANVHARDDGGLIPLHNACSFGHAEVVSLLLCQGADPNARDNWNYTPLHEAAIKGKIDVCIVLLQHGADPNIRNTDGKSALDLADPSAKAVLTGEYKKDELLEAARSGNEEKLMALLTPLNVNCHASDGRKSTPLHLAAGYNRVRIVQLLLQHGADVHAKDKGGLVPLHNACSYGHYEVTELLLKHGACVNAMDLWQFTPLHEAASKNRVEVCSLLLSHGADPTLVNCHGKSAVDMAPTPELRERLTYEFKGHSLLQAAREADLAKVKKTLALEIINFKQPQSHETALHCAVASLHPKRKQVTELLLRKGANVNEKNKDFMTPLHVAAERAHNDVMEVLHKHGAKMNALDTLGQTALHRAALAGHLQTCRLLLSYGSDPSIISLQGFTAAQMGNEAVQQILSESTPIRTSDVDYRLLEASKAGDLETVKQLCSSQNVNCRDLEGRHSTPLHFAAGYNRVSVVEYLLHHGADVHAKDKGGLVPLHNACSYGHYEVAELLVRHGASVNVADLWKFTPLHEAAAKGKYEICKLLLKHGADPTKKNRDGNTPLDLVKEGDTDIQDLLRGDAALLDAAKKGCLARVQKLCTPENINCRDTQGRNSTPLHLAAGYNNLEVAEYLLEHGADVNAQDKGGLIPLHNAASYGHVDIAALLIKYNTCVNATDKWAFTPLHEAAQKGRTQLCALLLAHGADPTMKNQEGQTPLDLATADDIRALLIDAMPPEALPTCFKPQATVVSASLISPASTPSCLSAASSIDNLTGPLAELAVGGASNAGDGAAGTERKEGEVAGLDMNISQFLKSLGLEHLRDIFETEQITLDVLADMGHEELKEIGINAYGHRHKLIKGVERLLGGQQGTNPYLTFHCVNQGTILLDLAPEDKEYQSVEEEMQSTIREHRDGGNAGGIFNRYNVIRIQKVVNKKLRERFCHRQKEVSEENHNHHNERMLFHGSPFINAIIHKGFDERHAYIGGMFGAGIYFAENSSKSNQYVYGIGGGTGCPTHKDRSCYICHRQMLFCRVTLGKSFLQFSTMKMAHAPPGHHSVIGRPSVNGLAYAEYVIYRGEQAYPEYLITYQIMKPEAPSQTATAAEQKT

NC(=O)c1cccc2cn(-c3ccc([C@@H]4CCCNC4)cc3)nc12 [Niraparib]
potency at PARP trapping (PARP-DNA complexes): much more potent at PARP trapping than veliparib | Maximum Kill Percent (HCC1806): 100% | IC50 (HCC1806; Homo sapiens, read-out: IC50 log10 (converted)): 18.6 µM | IC50 (SUM159PT; SUM159PT, Exp. 1, single agent, read-out: IC50 log10 (converted)): 2.24 µM | Maximum Kill Percent (SUM159PT; SUM159PT, Exp. 1, single agent): 97% | Maximum Kill Percent (HCC1187; HCC1187, Exp. 1, single agent): 98% | IC50 (HCC1187; HCC1187, Exp. 1, single agent, read-out: IC50 log10 (converted)): 129 µM | Maximum Kill Percent (BT549; BT549, Exp. 1, single agent): 100% | IC50 (BT549; BT-549, BT549, Exp. 1, single agent, read-out: IC50 log10 (converted)): 107 µM | Maximum Kill Percent (BT20; BT20, Exp. 1, single agent): 100% | IC50 (BT20; BT-20, BT20, Exp. 1, single agent, read-out: IC50 log10 (converted)): 138 µM | Maximum Kill Percent (HCC38; Exp. 1): 100% | IC50 (HCC38; Exp. 1): 17 µM

CNCc1ccc(-c2[nH]c3cc(F)cc4c3c2CCNC4=O)cc1 [Rucaparib]
effect of combination with SN-38 [1]: Additive/synergistic effects | EC50 (PAR): 0.0047 µM | effect of combination with SN-38 [2]: Additive/synergistic effects | growth inhibition of the cancer cells in combination with SN-38 [3]: additive/synergistic growth inhibition | Estimated tumor range (Estimated tumor range): <6 µM | IC50 (SUM159PT; SUM159PT, Exp. 3, single agent, read-out: IC50 log10 (converted)): 0.851 µM | Maximum Kill Percent (SUM159PT; SUM159PT, Exp. 3, single agent): 97% | Maximum Kill Percent (SUM149PT; Exp. 3, single agent): 99% | IC50 (SUM149PT; Exp. 3, single agent, read-out: IC50 log10 (converted)): 47.9 µM | Maximum Kill Percent (HCC1954; Exp. 3): 100% | IC50 (HCC1954; Homo sapiens, Exp. 3, read-out: IC50 log10 (converted)): 39.8 µM | Maximum Kill Percent (BT549; BT549, Exp. 3, single agent): 100% | IC50 (BT549; BT-549, BT549, Exp. 3, single agent, read-out: IC50 log10 (converted)): 56.2 µM | Maximum Kill Percent (BT20; BT20, Exp. 3, single agent): 100% | IC50 (BT20; BT-20, BT20, Exp. 3, single agent, read-out: IC50 log10 (converted)): 18.6 µM | Maximum Kill Percent (HCC38; Exp. 3): 87% | IC50 (HCC38; Exp. 3): 0.851 µM | sensitivity of cells to combination with SN-38 [4]: very sensitive | Active Range based on XTC008 (cancer cells; (Panc)): 1 to 100 nM

CCc1c2c(nc3ccc(O)cc13)-c1cc3c(c(=O)n1C2)COC(=O)[C@]3(O)CC [SN-38]
SN-38 tumor concentration required to yield tumor response [5]: 120 nM | differential tissue levels at 24 and 72 hours [6]: cleared faster from the liver, spleen, colon, and plasma, than from tumors | Estimated tumor range (Estimated tumor range; (398)): 0.003 to 0.163 µM | Estimated tumor range (Estimated tumor range; IRI): IRI < 200 nM | GI50 (HT-29): ~0.06 µM | IC50 log10 (μM) (HCC1806): −2.08 log10 (μM) | Maximum Kill Percent (HCC1806): 93% | IC50 log10 (μM) (SUM159PT; SUM159PT, Exp. 1, single agent): −2.35 log10 (μM) | Maximum Kill Percent (SUM159PT; SUM159PT, Exp. 1, single agent): 97% | IC50 log10 (μM) (SUM159PT; SUM159PT, Exp. 2, single agent): −2.39 log10 (μM) | Maximum Kill Percent (SUM159PT; SUM159PT, Exp. 2, single agent): 97% | IC50 log10 (μM) (SUM159PT; SUM159PT, Exp. 3, single agent): −2.66 log10 (μM) | Maximum Kill Percent (SUM159PT; SUM159PT, Exp. 3, single agent): 99% | IC50 log10 (μM) (SUM159PT; SUM159PT, Exp. 4, single agent): −2.33 log10 (μM) | Maximum Kill Percent (SUM159PT; SUM159PT, Exp. 4, single agent): 96% | IC50 log10 (μM) (SUM149PT; Exp. 2, single agent): 0.24 log10 (μM) | Maximum Kill Percent (SUM149PT; Exp. 2, single agent): 96% | IC50 log10 (μM) (SUM149PT; Exp. 3, single agent): 0.27 log10 (μM) | Maximum Kill Percent (SUM149PT; Exp. 3, single agent): 95% | IC50 log10 (μM) (HCC1187; HCC1187, Exp. 1, single agent): −0.68 log10 (μM) | Maximum Kill Percent (HCC1187; HCC1187, Exp. 1, single agent): 90% | IC50 log10 (μM) (HCC1187; HCC1187, Exp. 2, single agent): −0.64 log10 (μM) | Maximum Kill Percent (HCC1187; HCC1187, Exp. 2, single agent): 100% | IC50 log10 (μM) (HCC1187; HCC1187, Exp. 4, single agent): −0.98 log10 (μM) | Maximum Kill Percent (HCC1187; HCC1187, Exp. 4, single agent): 88% | IC50 log10 (μM) (SKBR3): −1.38 log10 (μM) | Maximum Kill Percent (SKBR3): 88% | IC50 log10 (μM) (HCC70): −0.07 log10 (μM) | Maximum Kill Percent (HCC70): 97% | IC50 log10 (μM) (HCC1954; Exp. 3): −0.97 log10 (μM) | Maximum Kill Percent (HCC1954; Exp. 3): 94% | IC50 log10 (μM) (HCC1954; Exp. 4): −0.65 log10 (μM) | Maximum Kill Percent (HCC1954; Exp. 4): 100% | IC50 log10 (μM) (BT549; BT549, Exp. 1, single agent): −0.10 log10 (μM) | Maximum Kill Percent (BT549; BT549, Exp. 1, single agent): 95% | IC50 log10 (μM) (BT549; BT549, Exp. 2, single agent): −0.04 log10 (μM) | Maximum Kill Percent (BT549; BT549, Exp. 2, single agent): 93% | IC50 log10 (μM) (BT549; BT549, Exp. 3, single agent): −0.05 log10 (μM) | Maximum Kill Percent (BT549; BT549, Exp. 3, single agent): 94% | IC50 log10 (μM) (BT20; BT20, Exp. 1, single agent): −0.18 log10 (μM) | Maximum Kill Percent (BT20; BT20, Exp. 1, single agent): 100% | IC50 log10 (μM) (BT20; BT20, Exp. 2, single agent): −0.69 log10 (μM) | Maximum Kill Percent (BT20; BT20, Exp. 2, single agent): 100% | IC50 log10 (μM) (BT20; BT20, Exp. 3, single agent): −0.37 log10 (μM) | Maximum Kill Percent (BT20; BT20, Exp. 3, single agent): 100% | IC50 log10 (μM) (BT20; BT20, Exp. 4, single agent): −0.24 log10 (μM) | Maximum Kill Percent (BT20; BT20, Exp. 4, single agent): 100% | IC50 log10 (μM) (HCC38; Exp. 1): −2.80 log10 (μM) | Maximum Kill Percent (HCC38; Exp. 1): 96% | IC50 log10 (μM) (HCC38; Exp. 3): −2.89 log10 (μM) | Maximum Kill Percent (HCC38; Exp. 3): 92% | IC50 log10 (μM) (HCC38; Exp. 4): −2.75 log10 (μM) | Maximum Kill Percent (HCC38; Exp. 4): 92% | plasma protein binding (human plasma proteins): approximately 95% | Active Range based on XTC008 (cancer cells): 1 to 50 nM

O=C(c1cc(Cc2n[nH]c(=O)c3ccccc23)ccc1F)N1CCN(C(=O)C2CC2)CC1 [Olaparib]
effect of combination with SN-38 [1]: Additive/synergistic effects | EC50 (PAR): 0.0036 µM | effect of combination with SN-38 [2]: Additive/synergistic effects | growth inhibition of the cancer cells in combination with SN-38 [3]: additive/synergistic growth inhibition | Estimated tumor range (Estimated tumor range): 8 µM | less effective against tankyrase-1 than against PARP 1/2 (tankyrase-1): 300 times | IC50 (SUM159PT; [7]): 1.51 µM | IC50 (SUM149PT; [7]): 251 µM | IC50 (HCC1187; HCC1187, read-out: IC50 log10 (μM) (converted)): 257 µM | IC50 (BT549; BT-549, read-out: IC50 log10 (μM) (converted)): 110 µM | IC50 (BT20; BT-20, read-out: IC50 log10 (μM) (converted)): 17.4 µM | sensitivity of cells to combination with SN-38 [4]: very sensitive
